Results: patent US11999782B2, “Therapeutic agents for the treatment of diseases associated with undesired cell proliferation” (Fundació Privada Institutció Catalana de Recerca I Estudis …, priority 2009, dated 2024)

What was measured:
[1] = tested on: GICs (glioma initiating cells) / GBM neurospheres; assay: Self-renewal assay of GBM neurospheres (GICs derived from patients); assay type: cell-based, human; settings: for number of newly formed neurospheres / total number of cells: GBM1, GBM2, GBM3 neurosphere cells, 7 days in the absence of growth factors, 100 pM TGFβ1 or 20 ng/ml LIF
Method: FIG. 1. Effect of TGFβ on the self-renewal of GIC derived from patients. (A) Representative images of PCTCs and neurospheres of GBM generated from samples of 3 different patients with GBM (GBM1, GBM2, GBM3). (B) Musashi-1 (Msi-1), Sox2, Nestin and β-actin were determined by means of RT-PCR analysis of PCTCs and neurospheres of 3 samples of human GBM. (C) 100,000 neurosphere (nsph.) or PCTC cells obtained from samples of GBM1, GBM2 and GBM3 tumors were intracranially inoculated in three Balbc nu/nu mice in each case. Magnetic resonance imaging (MRI) studies were performed on days 30-40 in each mouse. The images represent an example of mice inoculated with neurosphere or PCTC cells obtained from GBM1. The mice were weighed twice a week. The graph represents mice inoculated with cells derived from GBM1. (D and E) Neurosphere cells of the indicated GBMs were incubated in the absence of growth factors with 100 pM TGFβ1 and/or 2 μM TβRI inhibitor for 7 days and the number of newly formed neurospheres (D) and the total number of cells (E) were determined. (F) Representative images of GBM1 neurospheres treated as indicated in D and E.
FIG. 6. LIF mediates the increase of self-renewal of GIC by TGFβ. (A, B) GBM1, GBM2 and GBM3 neurosphere cells were treated with 100 pM TGFβ1, 20 ng/ml LIF and/or anti-LIF neutralizing antibody and 0.5 pM P6 in the absence of EGF and FGF and the number of newly formed neurospheres (A) or the total number of cells (B) was determined. (C) Representative images of GBM1 neurospheres treated as indicated in A and B.
The self-renewal of the neurospheres was evaluated by seeding an identical number of cells at a very low density in wells of a 96-well plate. The cells were treated, in the absence of growth factors, with the indicated compounds and the total number of new neurospheres formed after 7 days in culture was counted (Lee et al. (2008) Cancer Cell 13, 69-80; Reynolds and Weiss, (1996) Dev Biol 175, 1-13; Seaberg and van der Kooy, (2002) J Neurosci 22, 1784-1793).
It was decided to evaluate the effect of TGFβ on the capacity for self-renewal of GICs following a well described protocol based on the capacity of GICs to generate neurospheres (Reynolds and Weiss, 1996, Dev Biol. 175:1-13; Seaberg and van der Kooy, 2002, J Neurosci 22:1784-1793). The neurospheres derived from patients were disassociated into individual cells, treated with TGFβ or left untreated for 7 days in the absence of growth factors and the newly formed neurospheres and the total number of cells were counted. Following this protocol, the effect of TGFβ on the capacity for self-renewal of the GICs derived from three different patients was evaluated. […] These effects were blocked when an TGFβ I receptor inhibitor (TβRI) was added at the same time as TGFβ.
It was decided to assess whether LIF and JAK-STAT pathway mediated the increase of self-renewal of GICs by TGFβ. For this purpose, the neutralizing antibody against LIP and P6 was used to specifically block the effect of the secreted LIP on cells treated with TGFβ. The neurospheres were disassociated into individual cells and were treated with TGFβ, recombinant LIF, anti-LIF antibody and/or P6. The newly formed neurospheres and the total number of cells were counted. […] The treatment with the neutralizing antibody of LIP decreased the induction of the self-renewal of GICs by TGFβ.

[2] = tested on: STAT3 phosphorylation (JAK-STAT pathway); assay: p-STAT3 Western blotting in GBM1 neurospheres; assay type: cell-based, human; settings: for phosphorylation of STAT3: 20 ng/ml LIF (time course) or 100 pM TGFβ1 for 4 hours
Method: FIG. 5. TGFβ induces the LIF-JAK-STAT pathway in GEM neurospheres derived from patients. (A) The levels of p-STAT3 and STAT3 were determined by means of Western blotting of neurospheres of the sample of GBM1 treated with 20 ng/ml LIF for the indicated time periods. (B) The neurospheres of the sample of GBM1 were treated with 20 ng/ml LIF and/or 0.5 pM P6 for 15 minutes and the levels of total p-STAT3 and STAT3 were determined by means of Western blotting. (C) The neurospheres of the sample of GBM1 were treated with 100 pM TGFβ1 or the 2 pM TβRI inhibitor for 4 hours in the absence of EFG and FGF and the levels of p-STAT3, STAT3, p-Smad2, Smad2 and α-tubulin were determined by means of Western blotting. (D) the neurospheres of the sample of GBM1 were treated with 100 pM TGFβ1, 0.5 μM P6 or the blocking antibody against LIF for 4 hours in the absence of EGF and FGF and the levels of total p-STAT3 and STAT3 were determined by means of Western blotting.
Genomic DNA of U373MG was used to amplify the −634/+32 region of the human LIF promoter which was cloned into the pGL2-basic luciferase vector. The deletion constructs (−267/+32), and (−73/+32) were generated by means of digestion of the construct (−634/+32). Two point mutations were introduced in positions −183 bp and −184 bp in the construct (−267/+32) to interrupt the Smad binding element (SBE) and generate the construct (−267/+32) mutSBE. TGFβ1, TGFβ2, TGFβ3 (R&D Systems), TβRI inhibitor (SB431542, Tocris), LIF (Chemicon), the neutralizing antibodies against LIF (R&D), JAK inhibitor (tetracyclic pyridone 6 (P6) Calbiochem), the assembly of SMART siRNAs targeted to Smad2, Smad3 and Smad4 (Dharmacon), and the control siRNA siGlo (Dharmacon) were used at the indicated concentrations. The antibodies specific against p-Smad2, Smad2, p-STAT3 (p-Tyr705) and total STAT3 (Cell Signalling) and against Smad2, Smad3 and Smad4 (Hata et al., (2000) Cell 100, 229-240) were used for Western blotting.
In order to distinguish whether the LIF signaling pathway is functional in GEM neurospheres, the neurospheres were treated with recombinant LIF and the levels of phosphorylation of the downstream substrate of the LIF receptor complex, STAT3, were determined. […] Furthermore, the induction of p-STAT3 was prevented by the presence of a pharmacological JAK-specific, tetracyclic pyridone 6 (P6) (Pedranzini et al., 2006, Cancer Res, 66: 9714-9721; Thompson et al., 2002, Bioorg Med Chem Lett, 12:1219-1223) (FIG. 5B). […] It was decided to assess whether LIP was mediating the induction of p-STAT3 by TGFβ. For this purpose, a neutralizing antibody against LIF was used to specifically block the effect of secreted LIP on cells treated with TGFβ. The presence of the neutralizing antibody of LIP decreased the induction of p-STAT3 by TGFβ. Furthermore, the levels of p-STAT3 in cells treated with TGFβ were repressed by means of the treatment with P6 (FIG. 5D).

| Compound | effect of the isolated inhibitor on number of neurospheres and total number of cells ([1]; 2 μM TβRI inhibitor without TGFβ, 7 days, absence of growth factors) | effect on the induction of self-renewal of GICs by TGFβ (number of neurospheres, total number of cells) ([1]; added with 100 pM TGFβ1, 2 μM TβRI inhibitor, anti-LIF neutralizing antibody or 0.5 pM P6, absence of EGF and FGF) | effect on the induction of p-STAT3 by TGFβ ([2]; 100 pM TGFβ1, 4 hours, absence of EGF and FGF, 2 pM TβRI inhibitor, 0.5 μM P6 or blocking antibody against LIF) | number of newly formed neurospheres [1] | total number of cells [1] | phosphorylation of STAT3 [2] |
| --- | --- | --- | --- | --- | --- | --- |
| NC(=O)c1ccc(-c2nc(-c3ccc4c(c3)OCO4)c(-c3ccccn3)[nH]2)cc1 [TβRI inhibitor, SB431542, reference compound] | no significant effect | blocked | prevented that effect | – | – | – |
| LIF: recombinant leukemia inhibitory factor, an IL-6 type cytokine (Chemicon) | – | – | – | increased | increased | induced a quick phosphorylation of STAT3 |
| TGFβ: TGFβ1 (R&D Systems), used at 100 pM according to the figure legends | – | – | – | significantly increased | increased | induced the phosphorylation of STAT3 |
